Measurements taken from patent publication US5712297A, “Piperdine compounds and their preparation and use” (Novo Nordisk A/S, priority 1989, dated 1998).
Like-named read-outs stand apart in the source and are kept apart here.

What was measured:
muscarinic receptors [1] = conditions: known; in words; cited from earlier work
[2] = in words; cited from earlier work
muscarinic receptors [3] = conditions: in words; cited from earlier work
[4] = in words; cited from earlier work; remark: listed apart in the source
[5] = target: muscarinic receptors in the CNS; conditions: cited from earlier work
[6] = target: muscarinic acetylcholine receptors; experiment: Inhibition of specific binding of 3H-Oxotremorine-M (3H-Oxo); parameters: species or system rat (male Wistar; conditions: rat cortex; 3H-Oxotremorine 1.0 nM; 20 mM Hepes pH 7.4; 30 min at 25° C.
Method: The pharmacological properties of the compounds of the present invention (Formula I) can be illustrated by determining their capability to inhibit the specific binding of ^3 H-Oxotremorine-M (^3 H-Oxo).
^3 H-Oxo labels muscarinic receptors in the CNS (with a preference for agonist domaines of the receptors). Three different sites are labelled by 3H-Oxo. These sites have affinity of 1.0, 20 and 3000 nM, respectively. Using the present experimental conditions only the high and medium affinity sites are determined. The inhibitory effects of compounds on ^3 H-Oxo binding reflects the affinity for muscarinic acetylcholine receptors.
All preparations are performed at 0°-4° C. unless otherwise indicated. Fresh cortex (0.1-1 g) from male Wistar rats (150-250 g) is homogenized for 5-10 s in 10 ml 20 mM Hepes pH: 7.4, with an Ultra-Turrax homogenizer. The homogenizer is rinsed with 10 ml of buffer and the combined suspension centrifuged for 15 min at 40,000×g. The pellet is washed three times with buffer. In each step the pellet is homogenized as before in 2×10 ml of buffer and centrifuged for 10 min at 40,000×g. The final pellet is homogenized in 20 mM Hepes pH: 7.4 (100 ml per g of original tissue) and used for binding assay. Aliquots of 0.5 ml is added 25 μl of test solution and 25 μl of ^3 H-Oxotremorine (1.0 nM, final concentration) mixed and incubated for 30 min at 25° C. Non-specific binding is determined in triplicate using Arecoline (1 μg/ml, final concentration) as the test substance. After incubation samples are added 5 ml of ice-cold buffer and poured directly onto Whatman GF/C glass fiber filters under suction and immediately washed 2 times with 5 ml of ice-cold buffer. The amount of radioactivity on the filters are determined by conventional liquid scintillation counting. Specific binding is total binding minus non-specific binding. Test substances are dissolved in 10 ml water (if necessary heated on a steam-bath for less than 5 minutes) at a concentration of 2.2 mg/ml. 25-75% inhibition of specific binding must be obtained before calculation of IC50.
The test value will be given as IC50 (the concentration (ng/ml) of the test substance which inhibits the specific binding of ^3 H-Oxo by 50%). [formula] where Co is specific binding in control assays and Cx is the specific binding in the test assay. (The calculations assume normal mass-action kinetics).

Compound: CC(=O)OC1CN2CCC1CC2 (stereo not drawn) [3-acetoxy-quinuclidine]
- muscarinic agonist or antagonist activity (muscarinic receptors [1]): muscarinic agonist
- toxicity [2]: the same as indicated for arecoline
- separation between central and peripheral muscarinic effects (muscarinic receptors [3]): the same as indicated for arecoline
- biological half life [4]: the same as indicated for arecoline

Compound: C[N+](C)(C)CC#CCN1CCCC1=O [Compound 3H-Oxo, ^3 H-Oxotremorine-M]
- Kd ([5]; high affinity site, read-out: affinity of 3H-Oxo, first (high affinity) site): 1 nM
- Kd ([5]; medium affinity site, read-out: affinity of 3H-Oxo, second (medium affinity) site): 20 nM
- Kd ([5]; third site, not determined under the present experimental conditions, read-out: affinity of 3H-Oxo, third site): 3000 nM

Compound: CCCCCCCCSc1nsnc1C1=CCCN(C)C1.O=C(O)C(=O)O [Compound 64, 3-(4-octylthio-1,2,5-thiadiazol-3-yl)-1,2,5,6-tetrahydro-1-methylpyridine oxalate]
- Inhibition in vitro OXO BINDING (IC50: concentration which inhibits the specific binding of 3H-Oxo by 50%) [6]: 58 ng/mL

Compound: CCSc1nsnc1C1=CCCN(C)C1.O=C(O)C(=O)O [Compound 65, 3-(4-ethylthio-1,2,5-thiadiazol-3-yl)-1,2,5,6-tetrahydro-1-methylpyridine oxalate]
- Inhibition in vitro OXO BINDING (IC50: concentration which inhibits the specific binding of 3H-Oxo by 50%) [6]: 0.6 ng/mL

Compound: CCCCCSc1nsnc1C1=CCCN(C)C1 [Compound 66, 3-(4-pentylthio-1,2,5-thiadiazol-3-yl)-1,2,5,6-tetrahydro-1-methylpyridineoxalate]
- Inhibition in vitro OXO BINDING (IC50: concentration which inhibits the specific binding of 3H-Oxo by 50%) [6]: 1.8 ng/mL

Compound: CCCCCCSc1nsnc1C1=CCCN(C)C1.O=C(O)C(=O)O [Compound 67, 3-(4-hexylthio-1,2,5-thiadiazol-3-yl)-1,2,5,6-tetrahydro-1-methylpyridine oxalate]
- Inhibition in vitro OXO BINDING (IC50: concentration which inhibits the specific binding of 3H-Oxo by 50%) [6]: 1.6 ng/mL

Compound: COC(=O)C1=CCCN(C)C1 [arecoline, methyl 1-methyl-1,2,5,6-tetrahydropyridine-3-carboxylate]
- muscarinic agonist or antagonist activity (muscarinic receptors [1]): cholinergic agonist
- toxicity [2]: rather toxic compound
- separation between central and peripheral muscarinic effects (muscarinic receptors [3]): small separation between central and peripheral muscarinic effects
- biological half life [4]: very short biological half life
